Source: ChEMBL document CHEMBL3102761, “Discovery of Clinical Candidate GSK1842799 As a Selective S1P1 Receptor Agonist (Prodrug) for Multiple Sclerosis” (ACS Med Chem Lett, 2013)
Converted amounts (≈) assume the structure as drawn. The source made the active and inactive calls. The rule behind the calls is not given here.

What was measured:
Homo sapiens [1] = species: Homo sapiens; assay: Selectivity ratio for S1P3R (unknown origin) to S1P1R (unknown origin)
[2] = biological target: T1, Sphingosine 1-phosphate receptor 1 (Homo sapiens, UniProt P21453); assay: Agonist activity at S1P1R (unknown origin) assessed as [33P] binding activity
[3] = biological target: T2, Sphingosine 1-phosphate receptor 3 (Homo sapiens, UniProt Q99500); assay: Agonist activity at S1P3R (unknown origin) assessed as [33P] binding activity
Target sequence in this assay (Q99500 whole entry, looked up): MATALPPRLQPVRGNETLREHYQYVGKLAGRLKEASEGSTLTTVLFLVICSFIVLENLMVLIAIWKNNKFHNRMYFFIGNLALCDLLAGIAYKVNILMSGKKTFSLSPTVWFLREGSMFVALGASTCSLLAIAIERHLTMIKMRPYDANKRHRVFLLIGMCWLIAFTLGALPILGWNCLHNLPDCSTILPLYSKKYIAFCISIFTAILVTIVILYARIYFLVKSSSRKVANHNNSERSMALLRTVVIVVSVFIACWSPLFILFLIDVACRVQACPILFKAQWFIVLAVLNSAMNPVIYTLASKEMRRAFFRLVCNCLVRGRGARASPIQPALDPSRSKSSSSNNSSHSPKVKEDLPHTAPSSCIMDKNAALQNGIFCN

[4] = biological target: T3, Sphingosine 1-phosphate receptor 4 (Homo sapiens, UniProt O95977); assay: Agonist activity at human S1P4R expressed in HEK293T cells assessed as [35S]GTPgammaS binding after 30 mins by scintillation counting; format: functional, cell-based, HEK-293T
T3 sequence (O95977 whole entry): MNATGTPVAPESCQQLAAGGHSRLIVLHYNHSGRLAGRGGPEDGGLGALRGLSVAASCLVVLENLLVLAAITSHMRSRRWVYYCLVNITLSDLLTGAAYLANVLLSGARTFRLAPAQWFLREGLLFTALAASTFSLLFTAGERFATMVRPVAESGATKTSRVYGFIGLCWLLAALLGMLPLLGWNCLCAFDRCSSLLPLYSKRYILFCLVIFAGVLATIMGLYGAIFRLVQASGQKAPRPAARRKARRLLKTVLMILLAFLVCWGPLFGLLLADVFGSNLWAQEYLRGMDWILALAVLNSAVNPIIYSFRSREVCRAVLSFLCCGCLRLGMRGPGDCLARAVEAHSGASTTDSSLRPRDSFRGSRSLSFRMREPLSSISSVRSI

[5] = biological target: T1, Sphingosine 1-phosphate receptor 1; assay: Agonist activity at human S1P1R expressed in HEK293T cells assessed as [35S]GTPgammaS binding after 30 mins by scintillation counting; format: functional, cell-based, HEK-293T
[6] = biological target: Sphingosine 1-phosphate receptor 5 (Homo sapiens, UniProt Q9H228); assay: Agonist activity at human S1P5R expressed in HEK293T cells assessed as [35S]GTPgammaS binding after 30 mins by scintillation counting; format: functional, cell-based, HEK-293T
Homo sapiens [7] = species: Homo sapiens; assay: Selectivity ratio of EC50 for S1P3R (unknown origin) to EC50 for S1P1R (unknown origin)
[8] = biological target: T2, Sphingosine 1-phosphate receptor 3; assay: Agonist activity at human S1P3R expressed in HEK293T cells assessed as [35S]GTPgammaS binding after 30 mins by scintillation counting; format: functional, cell-based, HEK-293T
Target sequence in this assay (Q99500 whole entry): as the sequence (Q99500 whole entry, looked up) above

Mus musculus [9] = assay: Induction of lymphopenia in C57BL/6 mouse at 10 mg/kg, po at 6 hrs post-dose
Mus musculus [10] = assay: Induction of lymphopenia in po dosed C57BL/6 mouse measured at 6 hrs post-dose relative to vehicle-treated control; format: functional, organism-based
Cynomolgus monkey = assay: Induction of […] in po dosed cynomolgus monkey; format: functional, Macaca fascicularis
Mus musculus [11] = assay: Reduction in clinical symptoms in MOG peptide experimental autoimmune encephalitis (EAE) mouse multiple sclerosis disease model at 3 mg/kg, po qd; format: functional, organism-based; design: dose 3 mg/kg
Plasma [12] = assay: Plasma concentration in cynomolgus monkey assessed as phosphorylated compound at 3.8 mg/kg, po administered as single dose; format: ADME, organism-based, Macaca fascicularis; design: dose 3.8 mg/kg, route oral; conditions: in vivo
Liver microsome [13] = assay: Metabolic stability in rat liver microsomes; format: ADME
Plasma [14] = assay: Plasma concentration in dog assessed as phosphorylated compound at 5 mg/kg, po administered as single dose; format: ADME, organism-based, Canis lupus familiaris; design: dose 5 mg/kg, route oral; conditions: in vivo
[15] = Aqueous solubility of the compound; format: physicochemical; conditions: buffer
Caco-2 = assay: Permeability across human Caco2 cells; format: ADME, cell-based
Liver microsome [16] = assay: Metabolic stability in human liver microsomes; format: ADME
Liver microsome [17] = assay: Metabolic stability in dog liver microsomes; format: ADME, Canis lupus familiaris
Plasma [18] = assay: Plasma concentration in rat assessed as phosphorylated compound at 3 mg/kg, po administered as single dose; format: ADME, organism-based; design: dose 3 mg/kg, route oral; conditions: in vivo
[19] = Metabolic stability in cynomolgus monkey liver microsomes; format: ADME, Macaca fascicularis, Microsome
[20] = Inhibition of CYP450 (unknown origin); format: ADME; conditions: human
[21] = Cmax in cynomolgus monkey at 3.8 mg/kg, po administered as single dose; format: ADME, organism-based, Macaca fascicularis; design: dose 3.8 mg/kg, route oral; conditions: in vivo
Mus musculus [22] = assay: Induction of lymphopenia in C57BL/6 mouse at 0.1 mg/kg, po at 6 hrs post-dose relative to vehicle-treated control; format: functional, organism-based; design: dose 0.1 mg/kg
Homo sapiens [23] = species: Homo sapiens; assay: Selectivity ratio for human Sphk1 to human Sphk2

T1 sequence (P21453 whole entry): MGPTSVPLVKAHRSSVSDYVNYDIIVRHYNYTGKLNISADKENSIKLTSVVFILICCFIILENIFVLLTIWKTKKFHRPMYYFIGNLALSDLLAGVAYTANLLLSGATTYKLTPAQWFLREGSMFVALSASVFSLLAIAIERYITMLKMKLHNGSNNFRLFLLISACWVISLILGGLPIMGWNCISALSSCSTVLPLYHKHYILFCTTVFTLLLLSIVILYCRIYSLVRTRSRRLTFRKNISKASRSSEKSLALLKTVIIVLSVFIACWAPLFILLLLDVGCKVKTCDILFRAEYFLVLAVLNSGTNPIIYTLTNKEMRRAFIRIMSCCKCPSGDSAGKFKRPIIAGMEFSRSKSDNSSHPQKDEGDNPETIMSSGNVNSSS
Chain of Sphingosine 1-phosphate receptor 5 (Q9H228 whole entry): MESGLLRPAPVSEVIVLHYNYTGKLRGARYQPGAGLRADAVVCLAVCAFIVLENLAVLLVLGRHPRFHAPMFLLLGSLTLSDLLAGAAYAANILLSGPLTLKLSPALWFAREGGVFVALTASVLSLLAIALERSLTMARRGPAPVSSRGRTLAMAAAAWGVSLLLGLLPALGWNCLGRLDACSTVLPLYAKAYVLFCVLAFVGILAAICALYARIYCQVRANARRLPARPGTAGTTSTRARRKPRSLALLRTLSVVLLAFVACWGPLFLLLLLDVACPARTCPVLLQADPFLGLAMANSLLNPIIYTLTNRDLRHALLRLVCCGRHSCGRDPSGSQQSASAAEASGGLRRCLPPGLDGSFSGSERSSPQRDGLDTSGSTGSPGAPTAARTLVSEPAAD

Selectivity ratio (Homo sapiens [1]) | Activity [2] | Activity [3] | SMILES | also measured
11900 | 0.65 nM | 7.67 µM | Cc1nc([C@@](C)(N)COP(=O)(O)O)[nH]c1-c1ccc(OCc2ccc(-c3ccccc3)cc2)c(C(F)(F)F)c1 | 
1670 | 0.18 nM | 0.3 µM | CCCCCCCCOc1ccc(-c2cnc([C@@](C)(N)COP(=O)(O)O)s2)cc1C(F)(F)F | EC50 [4]: 3.6 nM; EC50 [5]: 0.44 nM; EC50 [6]: 2 nM; Ratio EC50 (Homo sapiens [7]): > 6800; EC50 [8]: > 3000 nM; Activity (Mus musculus [9]): 98%
> 5260 | 1.9 nM | > 10 µM | CCCCCCCCOc1ccc(-c2noc([C@@](C)(N)COP(=O)(O)O)n2)cc1C(F)(F)F | 
> 6250 | 1.6 nM | > 10 µM | C[C@](N)(COP(=O)(O)O)c1nc(-c2ccc(OCc3ccc(-c4ccccc4)cc3)c(C(F)(F)F)c2)cs1 | 
8860 | 0.83 nM | 7.35 µM | C[C@](N)(COP(=O)(O)O)c1nc(-c2ccc(OCc3ccc(-c4ccccc4)cc3)c(C(F)(F)F)c2)c[nH]1 | 
2170 | 0.3 nM | 0.65 µM | N[C@@H](COP(=O)(O)O)c1nc(-c2ccc(OCc3ccc(-c4ccccc4)cc3)c(C(F)(F)F)c2)c[nH]1 | 
> 359 | 27.8 nM | > 10 µM | CCCCCCCCOc1ccc(-c2nnc([C@@](C)(N)COP(=O)(O)O)o2)cc1C(F)(F)F | 
> 4350 | 2.3 nM | > 10 µM | NC(CO)(COP(=O)(O)O)c1nc(-c2ccc(OCc3ccc(-c4ccccc4)cc3)c(C(F)(F)F)c2)c[nH]1 (centres undefined) | 
2540 | 1.77 nM | 4.5 µM | C[C@](N)(COP(=O)(O)O)c1nnc(-c2ccc(OCc3ccc(-c4ccccc4)cc3)c(C(F)(F)F)c2)s1 | 
 |  |  | CCCCCCCCOc1ccc(-c2nnc([C@@](C)(N)CO)s2)cc1C(F)(F)F | Activity (Mus musculus [10]): Dose-dependent effect; EC90 (Cynomolgus monkey): 0.0162 µg/mL (≈ 0.0375 µM); Activity (Mus musculus [11]): Active; Cp (Plasma [12]): 10 ng/mL; Stability (Liver microsome [13]): Stable; Cp (Plasma [14]): 10 ng/mL; solubility [15]: soluble; permeability (Caco-2): permeable; Stability (Liver microsome [16]): Stable; Stability (Liver microsome [17]): Stable; Cp (Plasma [18]): 10 ng/mL; Stability [19]: Stable; inhibition (INH) [20]: Not Active; Cmax [21]: 50.9 ng/mL; Activity (Mus musculus [22]): Active
3340 | 1.46 nM | 4.87 µM | CCCCCCCCOc1ccc(-c2cnc([C@@](C)(N)COP(=O)(O)O)[nH]2)cc1C(F)(F)F | 
1210 | 0.14 nM | 0.17 µM | CCCCCCCCOc1ccc(-c2cc([C@@](C)(N)COP(=O)(O)O)on2)cc1C(F)(F)F | 
> 5000 | 2.1 nM | > 10 µM | Cc1oc([C@@](C)(N)COP(=O)(O)O)nc1-c1ccc(OCc2ccc(-c3ccccc3)cc2)c(C(F)(F)F)c1 | 
> 12000 | 0.83 nM | > 10 µM | CCCCCCCCOc1ccc(-c2cc([C@@](C)(N)COP(=O)(O)O)[nH]n2)cc1C(F)(F)F | 
 |  |  | CCCCCCCCc1ccc(CCC(N)(CO)CO)cc1 | Activity (Mus musculus [11]): Active; Selectivity ratio (Homo sapiens [23]): 30
3290 | 0.52 nM | 1.9 µM | CCCCCCCCOc1ccc(-c2nnc([C@@](C)(N)COP(=O)(O)O)s2)cc1C(F)(F)F | EC50 [4]: 4.57 nM; EC50 [5]: 0.26 nM; EC50 [6]: 0.66 nM; Ratio EC50 (Homo sapiens [7]): > 11500; EC50 [8]: > 3000 nM; Activity (Mus musculus [9]): 119%
 |  |  | CCCCCCCCCCCCC/C=C/[C@@H](O)[C@@H](N)COP(=O)(O)O | EC50 [4]: 13 nM; EC50 [5]: 4.25 nM; EC50 [8]: 3.94 nM
1190 | 0.73 nM | 0.867 µM | C[C@](N)(COP(=O)(O)O)c1ncc(-c2ccc(OCc3ccc(-c4ccccc4)cc3)c(C(F)(F)F)c2)s1 | 
> 8000 | 1.1 nM | > 10 µM | C[C@](N)(COP(=O)(O)O)c1ncc(-c2ccc(OCc3ccc(-c4ccccc4)cc3)c(C(F)(F)F)c2)o1 | 
 |  |  | CCCCCCCCOc1ccc(-c2cnc([C@@](C)(N)CO)s2)cc1C(F)(F)F | Activity (Mus musculus [10]): Dose-dependent effect; Activity (Mus musculus [11]): Active; Stability (Liver microsome [13]): Stable; solubility [15]: soluble; permeability (Caco-2): permeable; Stability (Liver microsome [17]): Stable; Stability [19]: Stable; inhibition (INH) [20]: Not Active; Activity (Mus musculus [22]): Active
